One data set deals with hepatitis B virus (HBV). As to the kind of experiment: In vitro pharmacological test: HBV DNA replication in HepG2.2.15 cells. The class given is cell-based. As to the method:
The inhibitory effect of the compounds of the invention on hepatitis B virus (HBV) was tested. The cytotoxicity of the compounds of the invention and the effect thereof on viral (HBV) nucleic acid (DNA) replication levels were tested at cellular level.
HepG2.2.15 cells in logarithmic growth phase were seeded in a 96-well plate at a cell concentration of 40 cells/μL, and were incubate for 3 days at 37° C. in a 5% CO2 incubator. The medium was replaced with new medium (200 μL/well) before adding the compound. The concentration of each compound of the examples in the stock solutions was 200 μM. The highest concentration was 200 μM, and dilution with DMSO lead to a number of different concentrations. 1 μL of the test compound was placed in the corresponding medium well, and the final test concentrations of the compounds were 0.06, 0.24, 0.98, 3.9, 15.6, 62.5, 250, 1000 nM (for calculating the medium effective concentration (EC50)).

The target of the next data set is T1, CYP3A4 (Homo sapiens, UniProt P08684).
T1 construct: The protein concentration of liver microsomes in the reaction system was 0.2 mg/mL; from tissue; host or cells: liver microsomes
The experiment in a line: CYP inhibition test, liver microsome incubation. The class given is in vitro ADME. Particulars: liver microsomes. As to the method: (§1) The compound was dissolved in DMSO to prepare a 10 mM stock solution. The stock solution was further diluted into a series of working solutions of 5, 1.5, 0.5, 0.15, 0.05, 0.015 and 0.005 mM with a mixed solvent of DMSO:methanol=1:1.
(§2) The substrates were each dissolved in DMSO to prepare stock solutions of the corresponding concentrations.
(§3) The positive controls were each dissolved in DMSO to prepare stock solutions of the corresponding concentrations. They were then diluted with methanol to the corresponding concentrations of working solutions.
(§4) The protein concentration of liver microsomes in the reaction system was 0.2 mg/mL, and the coenzyme NADPH was 1.0 mM. The incubation was carried out in a water bath at 37° C. The reaction was quenched and subjected to conventional procedures for LC-MS/MS analysis.
In general terms: Liver microsomes are vesicles of endoplasmic reticulum, rich in cytochrome P450 enzymes.

In another data set the target is T2, CYP2B6 (Homo sapiens, UniProt P20813).
T2 construct: The protein concentration of liver microsomes in the reaction system was 0.2 mg/mL; from tissue; host or cells: liver microsomes
T2 sequence (P20813 1-491): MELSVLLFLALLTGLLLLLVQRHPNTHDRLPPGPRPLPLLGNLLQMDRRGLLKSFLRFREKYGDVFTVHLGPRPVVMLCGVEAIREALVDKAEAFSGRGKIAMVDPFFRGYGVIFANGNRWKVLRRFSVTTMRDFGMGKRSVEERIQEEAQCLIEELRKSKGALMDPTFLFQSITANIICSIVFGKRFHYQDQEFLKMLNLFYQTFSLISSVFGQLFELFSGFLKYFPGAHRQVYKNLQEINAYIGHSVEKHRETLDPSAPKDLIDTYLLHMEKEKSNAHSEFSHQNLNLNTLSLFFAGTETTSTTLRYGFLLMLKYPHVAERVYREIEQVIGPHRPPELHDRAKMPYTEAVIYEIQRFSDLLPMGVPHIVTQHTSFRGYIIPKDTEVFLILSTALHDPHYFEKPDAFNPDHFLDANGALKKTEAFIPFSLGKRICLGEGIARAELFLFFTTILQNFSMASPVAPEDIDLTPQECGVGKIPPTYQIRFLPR
The experiment in a line: CYP inhibition test, liver microsome incubation. The class given is in vitro ADME. Particulars: liver microsomes, probe bupropion. As to the method:
as §1, §2, §3, §4

A further data set deals with T3, CYP1A2 (Homo sapiens, UniProt P05177).
T3 construct: from tissue; host or cells: liver microsomes
T3 sequence (P05177 1-516): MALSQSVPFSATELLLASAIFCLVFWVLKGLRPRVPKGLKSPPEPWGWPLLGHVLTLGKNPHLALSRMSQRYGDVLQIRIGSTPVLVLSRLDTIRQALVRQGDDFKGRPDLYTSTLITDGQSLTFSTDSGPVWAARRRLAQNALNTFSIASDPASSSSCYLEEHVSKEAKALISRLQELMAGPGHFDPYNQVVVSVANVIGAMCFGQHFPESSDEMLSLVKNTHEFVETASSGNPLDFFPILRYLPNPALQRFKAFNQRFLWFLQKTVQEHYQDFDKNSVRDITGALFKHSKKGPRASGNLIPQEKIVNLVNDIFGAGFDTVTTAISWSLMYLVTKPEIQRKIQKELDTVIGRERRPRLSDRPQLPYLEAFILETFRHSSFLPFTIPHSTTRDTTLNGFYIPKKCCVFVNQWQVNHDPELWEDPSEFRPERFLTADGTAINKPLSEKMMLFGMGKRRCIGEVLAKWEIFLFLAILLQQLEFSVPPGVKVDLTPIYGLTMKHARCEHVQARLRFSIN
The experiment in a line: CYP inhibition test, liver microsome incubation. The class given is in vitro ADME. The note with it: liver microsomes, probe phenacetin. As to the method: as §1, §2, §3, §4

A further data set addresses T4, CYP2C8 (Homo sapiens, UniProt P10632).
T4 construct: from tissue; host or cells: liver microsomes
T4 sequence (P10632 1-490): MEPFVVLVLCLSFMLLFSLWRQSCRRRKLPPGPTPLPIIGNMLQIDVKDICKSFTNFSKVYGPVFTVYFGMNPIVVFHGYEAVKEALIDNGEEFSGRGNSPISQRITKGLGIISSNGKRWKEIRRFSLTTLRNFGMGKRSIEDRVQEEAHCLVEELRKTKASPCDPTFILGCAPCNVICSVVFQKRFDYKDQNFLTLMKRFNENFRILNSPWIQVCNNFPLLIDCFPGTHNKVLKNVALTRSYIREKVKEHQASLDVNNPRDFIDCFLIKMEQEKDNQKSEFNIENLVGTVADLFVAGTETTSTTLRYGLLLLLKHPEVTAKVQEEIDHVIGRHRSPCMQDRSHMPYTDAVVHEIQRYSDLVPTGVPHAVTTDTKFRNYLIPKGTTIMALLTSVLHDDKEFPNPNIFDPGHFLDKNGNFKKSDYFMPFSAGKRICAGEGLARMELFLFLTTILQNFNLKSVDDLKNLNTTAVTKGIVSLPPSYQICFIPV
As to the kind of experiment: CYP inhibition test, liver microsome incubation. The class given is in vitro ADME. Particulars: liver microsomes, probe amodiaquine. As to the method:
as §1, §2, §3, §4

For the next data set, the target named is T5, CYP2C9 (Homo sapiens, UniProt P11712).
T5 construct: The protein concentration of liver microsomes in the reaction system was 0.2 mg/mL; from tissue; host or cells: liver microsomes
As to the kind of experiment: CYP inhibition test, liver microsome incubation. The class given is in vitro ADME. The note with it: liver microsomes, probe diclofenac. As to the method: as §1, §2, §3, §4

Another data set has as its target T6, CYP2D6 (Homo sapiens, UniProt P10635).
T6 construct: from tissue; host or cells: liver microsomes
As to the kind of experiment: CYP inhibition test, liver microsome incubation. The note with it: liver microsomes, probe dextromethorphan. The class given is in vitro ADME. As to the method: as §1, §2, §3, §4

For a further data set, the target named is T7, CYP2C19 (Homo sapiens, UniProt P33261).
T7 construct: The protein concentration of liver microsomes in the reaction system was 0.2 mg/mL; from tissue; host or cells: liver microsomes
The experiment in a line: CYP inhibition test, liver microsome incubation. The note with it: liver microsomes, probe methoin. The class given is in vitro ADME. As to the method:
as §1, §2, §3, §4

The next data set deals with CYP450 enzymes. The experiment in a line: CYP inhibition test, overall statement on the eight CYP450 enzymes. The note with it: all the eight CYP450 enzymes. The class given is in vitro ADME. As to the method: as §1, §2, §3, §4
The risk of drug interaction is little, and thus higher safety exists. Other compounds of the invention all have similar safety.

For data set [1] the following is noted: male, ICR, mouse, in vivo, po, 10 mg/kg.

The structures appear in SMILES notation.

T1 sequence (P08684 whole entry): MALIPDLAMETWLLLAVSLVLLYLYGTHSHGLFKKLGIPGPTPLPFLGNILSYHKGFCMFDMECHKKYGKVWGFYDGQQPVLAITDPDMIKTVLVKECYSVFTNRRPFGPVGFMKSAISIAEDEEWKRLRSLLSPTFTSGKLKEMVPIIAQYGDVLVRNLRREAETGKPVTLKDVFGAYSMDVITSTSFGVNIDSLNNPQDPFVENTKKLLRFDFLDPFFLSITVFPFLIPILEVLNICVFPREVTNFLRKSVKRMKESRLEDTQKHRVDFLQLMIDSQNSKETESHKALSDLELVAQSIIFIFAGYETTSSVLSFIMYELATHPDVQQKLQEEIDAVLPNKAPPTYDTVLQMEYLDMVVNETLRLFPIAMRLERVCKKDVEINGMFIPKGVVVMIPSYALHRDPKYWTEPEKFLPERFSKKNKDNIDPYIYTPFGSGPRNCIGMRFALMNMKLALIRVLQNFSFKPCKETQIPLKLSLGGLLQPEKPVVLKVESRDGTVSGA
T5 sequence (P11712 whole entry): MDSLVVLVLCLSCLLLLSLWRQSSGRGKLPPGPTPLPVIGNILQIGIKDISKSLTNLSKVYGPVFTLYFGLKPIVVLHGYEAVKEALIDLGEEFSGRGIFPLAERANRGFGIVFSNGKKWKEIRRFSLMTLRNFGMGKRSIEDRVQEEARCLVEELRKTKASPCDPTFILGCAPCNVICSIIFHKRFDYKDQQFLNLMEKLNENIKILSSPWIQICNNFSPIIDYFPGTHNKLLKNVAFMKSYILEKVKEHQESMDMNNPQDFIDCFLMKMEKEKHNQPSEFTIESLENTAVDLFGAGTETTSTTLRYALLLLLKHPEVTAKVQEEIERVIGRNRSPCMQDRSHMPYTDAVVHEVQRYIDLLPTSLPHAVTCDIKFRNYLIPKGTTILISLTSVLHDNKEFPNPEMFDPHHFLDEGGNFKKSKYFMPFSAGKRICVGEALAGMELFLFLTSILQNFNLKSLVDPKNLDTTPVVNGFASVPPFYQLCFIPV
T7 sequence (P33261 whole entry): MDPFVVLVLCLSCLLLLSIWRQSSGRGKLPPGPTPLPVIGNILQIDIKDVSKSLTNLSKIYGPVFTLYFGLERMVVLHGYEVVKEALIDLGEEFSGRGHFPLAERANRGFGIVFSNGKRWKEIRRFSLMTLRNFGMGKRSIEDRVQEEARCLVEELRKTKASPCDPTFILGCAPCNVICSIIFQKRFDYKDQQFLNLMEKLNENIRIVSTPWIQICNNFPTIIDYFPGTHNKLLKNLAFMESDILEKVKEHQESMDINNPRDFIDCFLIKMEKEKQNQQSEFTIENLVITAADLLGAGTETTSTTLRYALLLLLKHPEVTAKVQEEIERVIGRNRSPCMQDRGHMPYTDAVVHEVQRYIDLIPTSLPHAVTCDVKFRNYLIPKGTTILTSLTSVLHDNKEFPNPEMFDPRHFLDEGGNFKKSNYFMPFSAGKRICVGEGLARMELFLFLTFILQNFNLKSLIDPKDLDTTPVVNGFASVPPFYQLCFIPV
T6 sequence (P10635 whole entry): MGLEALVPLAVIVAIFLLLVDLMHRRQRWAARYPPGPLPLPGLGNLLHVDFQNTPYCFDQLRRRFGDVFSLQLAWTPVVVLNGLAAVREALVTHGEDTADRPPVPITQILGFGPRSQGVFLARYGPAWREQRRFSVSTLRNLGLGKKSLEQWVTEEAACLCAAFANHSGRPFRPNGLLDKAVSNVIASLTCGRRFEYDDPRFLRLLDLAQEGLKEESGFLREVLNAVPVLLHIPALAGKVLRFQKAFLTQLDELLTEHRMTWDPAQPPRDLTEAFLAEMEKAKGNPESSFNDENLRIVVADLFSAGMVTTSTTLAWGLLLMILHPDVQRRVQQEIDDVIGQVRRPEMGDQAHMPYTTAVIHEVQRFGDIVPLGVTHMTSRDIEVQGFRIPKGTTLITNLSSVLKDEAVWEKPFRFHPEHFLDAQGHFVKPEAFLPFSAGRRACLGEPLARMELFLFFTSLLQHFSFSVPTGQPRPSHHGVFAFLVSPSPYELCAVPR

`C[C@H](Cn1cnc2c(N)ncnc21)OCP(=O)(NCCOCc1ccccc1)Oc1ccccc1` (mixture of isomers) [Ex. 15, ((((R)-1-(6-amino-9H-purin-9-yl)propan-2-yl)oxy)methyl)-phenoxy-N-(2-(benzyloxy)ethyl)phosphoramide] yielded a half-maximal effective concentration (EC50) in the data set on hepatitis B virus (HBV) of 0.0547 ± 0.0264 µM. Besides, the half-maximal inhibitory concentration (IC50) at CYP3A4 (probe midazolam) was 11.6 µM; against CYP3A4 (probe testosterone), 13.3 µM; at CYP2B6, more than 50 µM; against CYP1A2, more than 50 µM; on CYP2C8, more than 50 µM; against CYP2C9 it was more than 50 µM. In addition, the IC50 against CYP2D6 and against CYP2C19 was more than 50 µM each time. Further, the “inhibitory effect on the eight CYP450 enzymes (in words)” value in the data set with CYP450 enzymes is recorded as “no inhibitory effect”.

Consider `C[C@H](Cn1cnc2c(N)ncnc21)OCP(=O)(O)O` (single isomer, unassigned) [Metabolite 1 of Compound 22 - Isomer B of Example 16], for which, in data set [1], the “concentration of Metabolite 1 in liver relative to the plasma concentration” value was found to be 21 times.

As a reminder, the EC50 is the concentration giving half of the maximal effect. Read a low EC50 as a more potent agent. The term IC50 denotes the point on the concentration scale where inhibition reaches its midpoint. Higher therefore signals weaker potency.
